The values that follow are results of earlier work, collected in US20110301202A1, “SPLA2 INHIBITOR CONJUGATE COMPOUNDS AND METHODS OF USE” (priority 2010, published 2011).

Structures are written as SMILES.

The conditions of series [1]: following administration.
[2] abbreviates: once- or twice-daily, stable CVD population, also diabetic and high baseline LDL-C subpopulations.

On to `CCc1c(C(=O)C(N)=O)c2c(OCC(=O)OC)cccc2n1Cc1ccccc1` [A-002, [[3-(2-Amino-1,2-dioxoethyl)-2-ethyl-1-(phenylmethyl)-1H-indol-4-yl]oxy]acetic acid methyl ester], for which the lipid levels entry (humans) is “decreases”. In addition, under setting [2], the LDL-C entry is “decreases”, the inflammatory marker levels entry is on record as “decreases”, the “small LDL-C particle levels” value is “decreases” and the “total LDL-C particle levels” value is on record as “decreases”. Besides, the total cholesterol result under setting [2] was “decreases”. Also, the “absorption and hydrolysis of prodrug to A-001” value in series [1] is “rapidly absorbed and hydrolyzed to A-001”.
